Values of other authors, collected in patent US20030175210A1, “Individualization of therapy with anxiolitics” (McGill University, priority 2001, published 2003).

Settings: in vivo

## O=C1Nc2ccc(Cl)cc2C(c2ccccc2Cl)=NC1O (stereo not shown) [Lorazepam]
  half-life: 10 to 15 h
